Results published in patent US20060002887A1, “Ionene oligomers and polymers” (Genzyme Corporation, priority 2002, published 2006).
Converted amounts (≈) assume the structure as drawn.

Tests used:
[1] = design: species or system pigs; settings: pig, in vivo
Method: The non-substituted C8-containing compound TMDP-C8 (about 1-10 kDa) was tested at 10 mg/ml for its ability to reduce S. aureus infections introduced into dermal wounds in pigs.

Burkholderia cepacia = experiment: MIC broth dilution assay; assay type: cell-based; settings: B. cepacia, read-out: minimum inhibitory concentration
Method: (§1) Both about 1-10 kDa fractions of poly(trimethylene dipyridine-alt-octane chloride) (TMDP-C8) and about 1.2 kDa poly(trimethylene dipyridine-alt-2,7-dihydroxyoctane chloride) (TMDP-C8(OH)2) have broad, though not identical antimicrobial activity.
(§2) Poly(trimethylene dipyridine-alt-5-oxanonane) having a molecular weight 0.5-1 kDa was tested in A-549 lung epithelial cells to determine its IC50 value in comparison with tobramycin, a conventional antibiotic. In addition, the minimum inhibitory concentrations for the two compounds were determined in vitro for a number of bacterial strains and species. The results are as shown below, where all concentrations are expressed as μg/mL: […]

[2] = system: Stenotrophomonas maltophilia; experiment: MIC broth dilution assay; assay type: cell-based; settings: S. maltophilia, read-out: minimum inhibitory concentration
Method: as §1, §2

Staphylococcus aureus = experiment: MIC broth dilution assay; assay type: cell-based; settings: S. aureus, read-out: minimum inhibitory concentration
Method: as §1, §2

Pseudomonas aeruginosa = experiment: MIC broth dilution assay; assay type: cell-based
Method: as §1, §2

[3] = system: A-549 lung epithelial cell line; experiment: Alamar Blue in vitro cytotoxicity; assay type: cell-based
Method: The oligomers were screened for in vitro cytotoxicity following 18-24 hr exposure using the metabolic indicator Alamar Blue™ (Alamar Biosciences, Sacramento, Calif.) against the A-549 lung epithelial cell line according to the manufacturer's instructions. Briefly, flat-bottom polystyrene microtiter plates were seeded with 2×10^4 cells in Ham's F-12 medium (Invitrogen) containing 10% fetal bovine serum (FBS) and were incubated ˜48 hr at 37° C., until cells were confluent. Medium was then aspirated off and replaced with medium lacking FBS. The oligomers were added to the first row (final concentration 5 mg/ml) and serial 2-fold dilutions were prepared across the plate. Plates were incubated 18-24 hr at 37° C.; medium containing test compounds was aspirated off, wells were washed once with PBS and fresh medium (lacking FBS and phenol red) was added. Alamar Blue™ was added (final concentration 30%); cells were incubated 4 hr and absorbance was read at 570 nm. The IC50 was then calculated.
as §2

P. aeruginosa = settings: within 11 passages, published studies; cited from earlier work
MRSA = settings: over 15 passages, published studies; cited from earlier work

poly(trimethylene dipyridine-alt-octane chloride) [TMDP-C8]
effect on wound healing [1]: did not inhibit or retard healing

NC[C@H]1O[C@H](O[C@H]2[C@H](O)[C@@H](O[C@H]3O[C@H](CO)[C@@H](O)[C@H](N)[C@H]3O)[C@H](N)C[C@@H]2N)[C@H](N)C[C@@H]1O [Tobramycin, tobramycin]
MIC (Burkholderia cepacia): > 50 µg/mL | MIC [2]: 25 µg/mL (≈ 53.5 µM) | MIC (Staphylococcus aureus): 0.195 µg/mL (≈ 0.417 µM) | minimum inhibitory concentration (Pseudomonas aeruginosa; P. aeruginosa PA01): 0.39 µg/mL (≈ 0.834 µM) | MIC (Pseudomonas aeruginosa; Pseudomonas aeruginosa, P. aeruginosa G38, read-out: minimum inhibitory concentration): 0.39 µg/mL (≈ 0.834 µM) | IC50 ([3]; Homo sapiens, A549, A-549 lung epithelial cells): 5000 µg/mL (≈ 10700 µM)

gentamicin
rise of MIC (P. aeruginosa): 190 fold

poly(trimethylene dipyridine-alt-octane) [TMDP-C8 >1k]
IC50, In vitro Cytotoxicity of Compounds Tested in First Rat Lung Study [3]: 30 µg/mL

CCn1cc(C(=O)O)c(=O)c2cc(F)c(N3CCNCC3)cc21 [norfloxacin]
rise of MIC (MRSA): 85 fold | rise of MIC (P. aeruginosa): 10 fold

poly(trimethylene dipyridine-alt-octane) [TMDP-C8 1-3k]
IC50, In vitro Cytotoxicity of Compounds Tested in First Rat Lung Study [3]: 322 µg/mL
